Here are results for 1 compound from patent US5750516A, “Phosphoric diester” (Senju Pharmaceutical Co., Ltd., priority 1995, dated 1998).

A short description of test [1]: DPPH (1,1-Diphenyl-2-picrylhydrazyl) radical scavenging action. It is filed as biochemical. The conditions noted are these: for Inhibition (%) (scavenging effect on DPPH radical): 20 minutes, 517 nm. The procedure: To 2.7 ml of 0.11 mM-DPPH/ethanol was added 300 μl of the test solution and the mixture was stirred and allowed to stand for 20 minutes. Then, the absorbance was measured at 517 nm. The radical scavenging effect (%) of each test solution was calculated by means of the following equation. [formula]

In test [2] the test system is lipid peroxidation in rat brain homogenate. Put plainly: Autooxidation (lipid peroxidation) of the rat brain homogenate, MDA by TBA method. Format: biochemical, Rats of Wistar strain. The conditions noted are these: for Inhibition (%) of lipid peroxidation in rat brain homogenate: 37° C., 30 minutes, pH 7.4. The procedure: Rats of Wistar strain (male, 11 weeks old) were used. The animal was decapitated and the brain was enucleated and homogenized in 4 ml/gram of 50 mM phosphate-buffered saline (pH 7.4). The homogenate was centrifuged (1000 g, 10 min.) and the supernatant was harvested. The test solution was set to 10^-7 -10^-4 M (dissolved at a final ethanol concentration of 1%). To 100 μl of the test solution was added 200 μl of the brain homogenate as well as 700 μl of phosphate-buffered saline and the mixture was incubated at 37° C. for 30 minutes for lipid peroxidation. The reaction was stopped with 200 μl of 35% perchloric acid and centrifuged (1300 g, 10 min.) and the MDA (malondialdehyde) value of the supernatant was determined by the TBA (thiobarbituric acid) method.

Turning to `Cc1c(C)c2c(c(C)c1OP(=O)([O-])O[C@@H](CO)[C@H]1OC(=O)C(O)=C1O)CCC(C)(CCCC(C)CCCC(C)CCCC(C)C)O2.[K+]` (stereo partly drawn) [the present compound, L-ascorbic acid 5-[3,4-dihydro-2,5,7,8-tetramethyl-2-(4,8,12-trimethyltridecyl)-2H-1-benzopyran-6-yl hydrogen phosphate] potassium], the “Inhibition (%) (scavenging effect on DPPH radical)” value is 71.7% in test [1] (5 × 10^-5 M), 96.7% in test [1] (10^-3 M), 97.3% in test [1] (10^-4 M) and 13.1% in test [1] (10^-5 M). In addition, in test [1] (10^-5 to 10^-3 M), the “scavenging of DPPH radicals (in words)” value is given as “scavenges DPPH radicals to a remarkable extent”. The “Inhibition (%) of lipid peroxidation in rat brain homogenate” value in test [2] (10^-4 M) is recorded as 98.5%; in test [2] (10^-5 M) it was 98.7%; in test [2] (10^-6 M) it was 93.3%; in test [2] (10^-7 M) it was 24.7%. Further, in test [2] (10^-7 -10^-4 M), the “inhibition of autooxidation of the rat brain homogenate (in words)” value was “inhibits autooxidation of the rat brain homogenate to a remarkable extent”.
